Data as given in patent publication US12419824B2, “Compounds useful for the treatment and/or care of the skin, hair, nails and/or mucous membranes” (Lubrizol Advanced Materials, Inc., priority 2019, dated 2025).

Test system: Muscle bind like protein 1 (MBNL1)
Experiment: MBNL1 quantification in human skeletal muscle cells by TR-FRET (Examples 7, 19)
Type: cell-based
Conditions: hSkMc (Innoprot), 0.5 mg/ml, 48 hours, normalized to total protein
Description: MBNL1 induction by the peptides of the invention is evaluated by a Time resolved fluorescence resonance energy transfer (TR-FRET) assay. The aim of this study is to investigate the capacity of peptide candidates to increase MBNL1 in human skeletal muscle cells (hSkMc).
hSkMc (Innoprot) are seeded in 12-well plates at a density of 1.5×10^4 cells/well in Skeletal Muscle Cell Growth Medium (Promocell). After 72 hours incubation, medium is removed and replaced with Skeletal Muscle Cell Differentiation Medium (Promocell). 48 hours after beginning cell differentiation, fresh differentiation medium with 0.5 mg/ml of test items is added. Treatment is continued for 48 hours and non-treated cells are used as basal control. After 48 hours of treatment, cell medium is removed and added cell lysis buffer to wells. Immediately, plates are kept at −80° C. in order to improve protein extraction during the defrosting process. After 72 hours, cells are lysated by shaking the plates in an orbital rotor at room temperature for 45 minutes. Next, cell lysates are collected and assayed to quantify the level of MBNL1 protein and total protein concentration.
MBNL1 protein levels measurement is performed with Human MBNL1 Assay Kit (Cisbio) according to the manufacturer's protocol. Briefly, the kit is used to perform a TR-FRET for MBNL1 quantification. The protein is detected with the antibodies provided in the kit and quantified by a fluorescence measurement. The quantification is carried out by using a microplate reader (ClarioStar, BMG) set to 665 nm and 620 nm.
Total protein concentration of cell lysate is determined by using Pierce BCA Protein Assay Kit™ (Thermo Scientific) according to manufacturer's protocol. In brief, after adding Working Reagent to the samples and the standards, the samples are incubated. Afterwards, color change is measured with an absorbance microplate reader (Clariostar™, BMG) at 562 nm. The total protein amount is used to normalize the level of MBNL1 protein concentration obtained by the TR-FRET test in the samples.
Different peptides of the invention are tested as disclosed in Example 7 at 0.5 mg/mL.

Row | Substance | MBNL1 levels compared to the basal control
1 | H-Ala-Leu-Lys-Pro-Asn-Thr-NH2 (H-ALKPNT-NH2) [PEP2] | increase MBNL1 levels
2 | Ac-Asp-Val-Tyr-Lys-NH2 (Ac-DVYK-NH2) [PEP1] | increase MBNL1 levels
